Several values for one entry are separate records, joined by “and”; a condition that tells them apart may be missing. Equal entries are not always repeated.
How the values were obtained:
Format in all cases: cell-based, human
[1] = test system: KB-V1/Vbl cervical carcinoma cells; assay: MTT cell growth inhibition, KB-V1/Vbl; conditions: Pgp-overexpressing KB-V1 cells
Protocol: The MCF-7/Topo cells were grown in E-MEM medium (Sigma) supplemented with 2.2 g/L NaHCO3, 110 mg/L sodium pyruvate and 5% FCS. The cells were maintained in a moisture-saturated atmosphere (5% CO2) at 37° C. in 75-mL culture flasks (Nunc, Wiesbaden, Germany). They were serially passaged following trypsinisation by 0.05% trypsin/0.02% EDTA (PAA laboratories, Clbe, Germany). Mycoplasma contamination was routinely monitored, and only mycoplasma-free cultures were used.
HL-60 leukemia cells (5×10^5/mL), and cells (5×10^4/mL) of 518A2 melanoma, HT-29 colon, KB-V1/Vbl cervix and MCF-7/Topo breast carcinoma were seeded out in 96-well tissue culture plates and cultured for 24 h. […] Blank and solvent controls were treated identically. MTT in phosphate buffered saline (5 mg/mL) was added to a final concentration of 0.05% (HL-60, 518A2) or 0.1% (HT-29, KB-V1/Vbl, MCF-7/Topo). After 2 h the formazan precipitate was dissolved in 10% sodium dodecylsulfate in DMSO containing 0.6% acetic acid in the case of the HL-60 cells. For the adherent 518A2, KB-V1/Vbl, MCF-7/Topo and HT-29 cells the microplates were swiftly turned to discard the medium before adding the solvent mixture. The microplates were gently shaken in the dark for 30 min and absorbance at 570 nm and 630 nm (background) was measured with an ELISA plate reader. All experiments were carried out in quadruplicate; the percentage of viable cells was calculated as the mean±SD with controls set to 100%.

[2] = test system: MCF-7/Topo breast carcinoma cells; assay: MTT cell growth inhibition, MCF-7/Topo; conditions: MCF-7/Topo (BCRP+)
Protocol: The effects of the compounds 5b, 6b, 8a, and 8e according to the present invention and of the reference compound 25f (Wang et al., J. Med. Chem. 2002, 45, 1697-1711) on cells of the following human tumor cell lines were evaluated: 518A2 melanoma, HL-60 leukemia, HT-29 colon carcinoma, KB-V1/Vbl cervical carcinoma, and MCF-7/Topo breast carcinoma.
The HL-60 cells were obtained from the German Collection of Biological Material (DSMZ), Braunschweig, Germany; the human 518A2 melanoma cells as well as the testicular germ cell tumor cell lines H12.1 and 1411HP were cultured in the department of oncology and hematology, Medical Faculty of the Martin-Luther University, Halle, Germany; the KBV1/Vbl and the MCF-7/Topo cells were obtained from the Institute of Pharmacy of the University Regensburg, Germany; and the colon HT-29 cells from the University Hospital Erlangen, Germany. The HL-60 and the HT-29 cells were grown in RPMI-1640 medium supplemented with 10% fetal calf serum (FCS), 100 IU/mL penicillin G, 100 μg/mL streptomycin sulfate, 0.25 μg/mL amphotericin B and 250 μg/mL gentamycine (all from Gibco, Egenstein, Germany). The 518A2 and the KB-V1/Vbl cells were cultured in Dulbecco's Modified Eagle Medium (D-MEM, Gibco) containing 10% FCS, 100 IU/mL penicillin G, 100 μg/mL streptomycin sulfate, 0.25 μg/mL amphotericin B and 250 μg/mL gentamycine. The MCF-7/Topo cells were grown in E-MEM medium (Sigma) supplemented with 2.2 g/L NaHCO3, 110 mg/L sodium pyruvate and 5% FCS. The cells were maintained in a moisture-saturated atmosphere (5% CO2) at 37° C. in 75-mL culture flasks (Nunc, Wiesbaden, Germany). They were serially passaged following trypsinisation by 0.05% trypsin/0.02% EDTA (PAA laboratories, Clbe, Germany). Mycoplasma contamination was routinely monitored, and only mycoplasma-free cultures were used.
MTT [3-(4,5-dimethylthiazol-2-yl)-2,5-diphenyltetrazolium bromide](ABCR) was used to identify viable cells which reduce it to a violet formazan (Mosmann, J. Immunol. Methods 1983, 65, 55-63). HL-60 leukemia cells (5×10^5/mL), and cells (5×10^4/mL) of 518A2 melanoma, HT-29 colon, KB-V1/Vbl cervix and MCF-7/Topo breast carcinoma were seeded out in 96-well tissue culture plates and cultured for 24 h. Incubation (5% CO2, 95% humidity, 37° C.) of the cells following treatment with the test compounds was continued for 24, 48 or 72 h. Blank and solvent controls were treated identically. […] The microplates were gently shaken in the dark for 30 min and absorbance at 570 nm and 630 nm (background) was measured with an ELISA plate reader. All experiments were carried out in quadruplicate; the percentage of viable cells was calculated as the mean±SD with controls set to 100%.

518A2 cells = assay: ROS generation, NBT assay, 518A2; conditions: 50 μM, relative to untreated controls (1%), mean ± SD
Protocol: (§1) The generation of reactive oxygen species (ROS) in tumor cells is a sign of cellular stress resulting in severe damage of cellular components such as DNA, lipids or proteins.
(§2) For the NBT assay, HL-60 cells (0.5·10^6/mL) were plated in 96-well tissue culture plates, and test compounds were added after 24 h incubation at 37° C. to achieve a final concentration of 50 μM. […] After removal of the cell medium by centrifugation, the cells in each well were resuspended in 100 μL 0.1% NBT, and the plates were placed in the incubator for 1 h. The reduced NBT was solubilized with 100 μl 2 M KOH and 130 μl DMSO for 30 min. The absorbance was measured for each well at 630 and 405 nm (background) using an ELISA plate reader. The adherent 518A2 cells (0.5·10^4/mL) were seeded out in 96-well tissue culture plates after trypsinization and incubation for 24 h at 37° C. to allow attachment, then treated similarly, only that the medium was removed prior to incubation with NBT for 4 h. All experiments were carried out in quadruplicate.

HL-60 cells = assay: ROS generation, NBT assay, HL-60; conditions: 50 μM, relative to untreated controls (1%), mean ± SD
Protocol: as §1, §2

| Structure (SMILES) | IC50 concentration [1] | cytotoxicity / efficacy (comparison) [2] | NBT Reduction [%] in 518A2 cells after 24 h (518A2 cells) [%] | NBT Reduction [%] in HL-60 cells after 24 h (HL-60 cells) |
| --- | --- | --- | --- | --- |
| COc1ccc(-c2c(-c3cc(Cl)c(OC)c(OC)c3)ncn2C)cc1N [compound 5b, 1-methyl-5-(3-amino-4-methoxyphenyl)-4-(3-chloro-4,5-dimethoxyphenyl)-imidazole] | single-digit nanomolar range | noticeably less active but still superior to the known imidazole 25f | 1.8 ± 0.2 | 4.4% and 4.4 ± 0.6% |
| COc1ccc(-c2c(-c3cc(Br)c(OC)c(OC)c3)ncn2C)cc1N [compound 6b, 1-methyl-5-(3-amino-4-methoxyphenyl)-4-(3-bromo-4,5-dimethoxyphenyl)-imidazole] | single-digit nanomolar range | noticeably less active but still superior to the known imidazole 25f | 1.5 ± 0.2 | 3.8 ± 0.3% |

Reference: patent US8980933B2, “Combretastatin analogs for use in the treatment of cancer” (Universitat Bayreuth, priority 2010, dated 2015)
